Source: patent publication US20030176500A1, “Medium chain fatty acids applicable as antimicrobial agents” (priority 2000, published 2003)

Test system: E. coli K88
Assay: Control of E. coli K88 growth in Brain Heart Infusion broth (OD600nm)
Type: cell-based, Escherichia coli
Conditions: colistine 12 ppm, sodium salt of MCFA 1200 ppm; for OD600nm: pH 4.0, 37° C., MCFA values higher by intrinsic turbidity
Method: Three samples of 100 ml of fermentation broth (Brain Heart Infusion) were equally inoculated with an overnight culture of E. coli K88 (pathogen in gastrointestinal tract of piglet) and further incubated at 37° C. The optical density at 600 nm (OD600nm)—which is proportional to the amount of E. coli cells present (FIG. 1)—was measured. As soon as an OD600nm of between 0.2 and 0.5 was obtained,
(1) nothing was added to the first sample,
(2) 12 ppm of colistine was added to the second sample and
(3) 1200 ppm of the sodium salt of MCFA (mixture containing 50% of fatty acid with 8 carbon atoms and 50% of fatty acid with 10 carbon atoms) was added to the third sample.
The samples were further incubated at 37° C. for 4 hours at pH 4.0. The OD600nm was measured evey hour. The samples were removed from the incubation after 4 hours, the pH was measured in order to register possible pH changes during incubation.

Substance colistine has an OD600nm (2 hours after pH setting) of 0.420, an OD600nm (3 hours after pH setting) of 0.449 and an OD600nm (4 hours after pH setting) of 0.455. The “Difference in OD600nm” value (between 2 and 4 hours) was 0.035, the Growth % (blank = 100) was 44% and the “growth of E. coli retarded” value (pH 4.0) was 56%.
